Data reported in patent publication US20030186967A1, “Acylresorcinol derivatives are selective vitronectin receptor inhibitors” (American Home Products Corporation, priority 1998, published 2003).

Molecular target: T1, Vitronectin receptor αVβ3 (Homo sapiens, UniProt P05106+P06756)
T1 construct: expressed in transfected cells; host or cells: 512P5 cells (plasma membrane preparation)
Experiment: Vitronectin Receptor αVβ3 Binding Assay
Details: read-out: VnR (IC50μM)

T1 sequence (P06756 31-889 limits assumed): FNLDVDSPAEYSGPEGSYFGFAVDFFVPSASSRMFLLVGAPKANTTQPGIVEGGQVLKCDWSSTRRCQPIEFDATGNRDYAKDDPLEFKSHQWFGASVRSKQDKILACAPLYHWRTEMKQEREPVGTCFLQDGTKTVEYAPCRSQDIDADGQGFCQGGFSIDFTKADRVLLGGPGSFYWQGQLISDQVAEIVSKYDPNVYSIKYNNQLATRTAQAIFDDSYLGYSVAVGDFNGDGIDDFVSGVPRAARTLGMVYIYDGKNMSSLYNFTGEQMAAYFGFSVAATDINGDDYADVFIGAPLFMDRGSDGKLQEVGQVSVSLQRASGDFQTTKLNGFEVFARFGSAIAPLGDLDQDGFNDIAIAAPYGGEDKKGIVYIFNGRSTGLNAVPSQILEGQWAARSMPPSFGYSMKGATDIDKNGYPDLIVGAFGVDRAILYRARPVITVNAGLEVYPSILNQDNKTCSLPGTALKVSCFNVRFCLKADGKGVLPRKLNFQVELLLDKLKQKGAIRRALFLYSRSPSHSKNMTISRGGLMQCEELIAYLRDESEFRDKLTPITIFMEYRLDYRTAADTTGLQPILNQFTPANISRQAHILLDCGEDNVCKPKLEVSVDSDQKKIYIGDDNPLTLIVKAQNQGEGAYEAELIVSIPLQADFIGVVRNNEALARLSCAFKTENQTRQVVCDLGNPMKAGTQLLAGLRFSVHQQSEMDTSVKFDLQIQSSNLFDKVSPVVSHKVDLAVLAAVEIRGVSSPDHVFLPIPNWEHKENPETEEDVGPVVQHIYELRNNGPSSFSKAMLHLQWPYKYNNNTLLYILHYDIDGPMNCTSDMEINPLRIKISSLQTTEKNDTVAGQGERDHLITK
T1 sequence (P06756 891-1048 partner limits assumed): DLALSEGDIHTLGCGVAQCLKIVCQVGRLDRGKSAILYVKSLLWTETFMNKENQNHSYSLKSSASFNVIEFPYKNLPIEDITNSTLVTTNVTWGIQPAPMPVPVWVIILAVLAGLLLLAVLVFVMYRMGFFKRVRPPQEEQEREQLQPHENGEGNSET
T1 sequence (P05106 27-788): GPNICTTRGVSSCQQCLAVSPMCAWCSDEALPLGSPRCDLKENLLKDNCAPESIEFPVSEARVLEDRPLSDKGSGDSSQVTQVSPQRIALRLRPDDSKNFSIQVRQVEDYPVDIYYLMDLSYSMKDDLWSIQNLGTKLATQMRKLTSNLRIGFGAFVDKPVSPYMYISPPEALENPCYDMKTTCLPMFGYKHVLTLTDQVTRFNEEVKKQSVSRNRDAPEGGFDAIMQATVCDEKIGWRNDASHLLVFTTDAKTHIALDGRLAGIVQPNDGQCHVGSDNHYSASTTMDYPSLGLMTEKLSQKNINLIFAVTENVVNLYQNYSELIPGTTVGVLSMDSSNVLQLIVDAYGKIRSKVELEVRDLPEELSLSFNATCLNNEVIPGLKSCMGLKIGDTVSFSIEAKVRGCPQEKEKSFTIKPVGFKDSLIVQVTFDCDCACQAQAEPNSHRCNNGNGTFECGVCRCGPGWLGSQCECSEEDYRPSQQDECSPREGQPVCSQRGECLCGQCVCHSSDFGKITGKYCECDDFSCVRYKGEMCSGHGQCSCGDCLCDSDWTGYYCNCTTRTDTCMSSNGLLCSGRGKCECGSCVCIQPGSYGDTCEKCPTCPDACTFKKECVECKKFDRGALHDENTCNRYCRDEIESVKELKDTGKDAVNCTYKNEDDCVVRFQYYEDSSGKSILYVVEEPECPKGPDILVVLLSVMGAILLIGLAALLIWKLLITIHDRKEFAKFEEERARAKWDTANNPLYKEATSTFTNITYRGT

Row | Compound | IC50
1 | CC(C)C(=O)N[C@@H](CNC(=O)c1ccc(OCCNC2=NCCN2)cc1O)C(=O)O [Example 118, (2S)-3-({4-[2-(4,5-dihydro-1H-imidazol-2-ylamino)ethoxy]-2-hydroxybenzoyl}-amino)-2-(isobutyrylamino)propanoic acid] | > 1 µM
2 | CCCC(=O)N[C@@H](CNC(=O)c1ccc(OCCNC2=NCCN2)cc1O)C(=O)O [Example 119, (2S)-2-(butyrylamino)-3-({4-[2-(4,5-dihydro-1H-imidazol-2-ylamino)ethoxy]-2-hydroxybenzoyl}amino)propanoic acid] | > 1 µM
3 | CCCCCC(=O)N[C@@H](CNC(=O)c1ccc(OCCNC2=NCCN2)cc1O)C(=O)O [Example 120, (2S)-3-({4-[2-(4,5-dihydro-1H-imidazol-2-ylamino)ethoxy]-2-hydroxybenzoyl}-amino)-2-(hexanoylamino)propanoic acid] | > 1 µM
4 | CCCCC(=O)N[C@@H](CNC(=O)c1ccc(OCCNC2=NCCN2)cc1O)C(=O)O [Example 121, (2S)-3-({4-[2-(4,5-dihydro-1H-imidazol-2-ylamino)ethoxy]-2-hydroxybenzoyl}-amino)-2-(pentanoylamino)propanoic acid] | > 1 µM
5 | CC(C)(C)CC(=O)N[C@@H](CNC(=O)c1ccc(OCCNC2=NCCN2)cc1O)C(=O)O [Example 122, (2S)-3-({4-[2-(4,5-dihydro-1H-imidazol-2-ylamino)ethoxy]-2-hydroxybenzoyl}-amino)-2-[(3,3-dimethylbutanoyl)amino]propanoic acid] | > 1 µM
6 | CC1(C)C(C(=O)N[C@@H](CNC(=O)c2ccc(OCCNC3=NCCN3)cc2O)C(=O)O)C1(C)C [Example 123, (2S)-3-({4-[2-(4,5-dihydro-1H-imidazol-2-ylamino)ethoxy]-2-hydroxybenzoyl}-amino)-2-{[(2,2,3,3-tetramethylcyclopropyl)carbonyl]amino}propanoic acid] | > 1 µM
7 | O=C(CC12CC3CC(CC(C3)C1)C2)N[C@@H](CNC(=O)c1ccc(OCCNC2=NCCN2)cc1O)C(=O)O [Example 124, (2S)-2-{[2-(1-adamantyl)acetyl]amino}-3-({4-[2-(4,5-dihydro-1H-imidazol-2-ylamino)ethoxy]-2-hydroxybenzoyl}amino)propanoic acid] | 0.734 µM
8 | C#CCCC(=O)N[C@@H](CNC(=O)c1ccc(OCCNC2=NCCN2)cc1O)C(=O)O [Example 125, (2S)-3-({4-[2-(4,5-dihydro-1H-imidazol-2-ylamino)ethoxy]-2-hydroxybenzoyl}-amino)-2-(pent-4-ynoylamino)propanoic acid] | > 1 µM
9 | O=C(NC[C@H](NC(=O)C1CCCCC1)C(=O)O)c1ccc(OCCNC2=NCCN2)cc1O [Example 126, (2S)-2-[(cyclohexylcarbonyl)amino]-3-({4-[2-(4,5-dihydro-1H-imidazol-2-ylamino)ethoxy]-2-hydroxybenzoyl}amino)propanoic acid] | > 1 µM
10 | O=C(Cc1ccccc1)N[C@@H](CNC(=O)c1ccc(OCCNC2=NCCN2)cc1O)C(=O)O [Example 127, (2S)-3-({4-[2-(4,5-dihydro-1H-imidazol-2-ylamino)ethoxy]-2-hydroxybenzoyl}-amino)-2-[(2-phenylacetyl)amino]propanoic acid] | 0.955 µM
11 | O=C(CCc1ccccc1)N[C@@H](CNC(=O)c1ccc(OCCNC2=NCCN2)cc1O)C(=O)O [Example 128, (2S)-3-({4-[2-(4,5-dihydro-1H-imidazol-2-ylamino)ethoxy]-2-hydroxybenzoyl}-amino)-2-[(3-phenylpropanoyl)amino]propanoic acid] | > 1 µM
12 | O=C(CC1CCCCC1)N[C@@H](CNC(=O)c1ccc(OCCNC2=NCCN2)cc1O)C(=O)O [Example 129, (2S)-2-[(2-cyclohexylacetyl)amino]-3-({4-[2-(4,5-dihydro-1H-imidazol-2-ylamino)ethoxy]-2-hydroxybenzoyl}amino)propanoic acid] | 0.635 µM
13 | O=C(/C=C/c1ccccc1)N[C@@H](CNC(=O)c1ccc(OCCNC2=NCCN2)cc1O)C(=O)O [Example 130, (2S)-3-({4-[2-(4,5-dihydro-1H-imidazol-2-ylamino)ethoxy]-2-hydroxybenzoyl}-amino)-2-{[(E)-3-phenylprop-2-enoyl]amino}propanoic acid] | > 1 µM
14 | O=C(NC[C@H](NC(=O)c1ccccc1Cl)C(=O)O)c1ccc(OCCNC2=NCCN2)cc1O [Example 131, (2S)-2-[(2-chlorobenzoyl)amino]-3-({4-[2-(4,5-dihydro-1H-imidazol-2-ylamino)ethoxy]-2-hydroxybenzoyl}amino)propanoic acid] | 0.405 µM
15 | Cc1ccccc1C(=O)N[C@@H](CNC(=O)c1ccc(OCCNC2=NCCN2)cc1O)C(=O)O [Example 132, (2S)-3-({4-[2-(4,5-dihydro-1H-imidazol-2-ylamino)ethoxy]-2-hydroxybenzoyl}amino)-2-[(2-methylbenzoyl)amino]propanoic acid] | 0.963 µM
16 | COc1ccccc1C(=O)N[C@@H](CNC(=O)c1ccc(OCCNC2=NCCN2)cc1O)C(=O)O [Example 133, (2S)-3-({4-[2-(4,5-dihydro-1H-imidazol-2-ylamino)ethoxy]-2-hydroxybenzoyl}-amino)-2-[(2-methoxybenzoyl)amino]propanoic acid] | > 1 µM
17 | O=C(N[C@@H](CNC(=O)c1ccc(OCCNC2=NCCN2)cc1O)C(=O)O)c1ccc(Cl)cc1 [Example 134, (2S)-2-[(4-chlorobenzoyl)amino]-3-({4-[2-(4,5-dihydro-1H-imidazol-2-ylamino) -ethoxy]-2-hydroxybenzoyl}amino)propanoic acid] | > 1 µM
18 | Cc1ccc(C(=O)N[C@@H](CNC(=O)c2ccc(OCCNC3=NCCN3)cc2O)C(=O)O)cc1 [Example 135, (2S)-3-({4-[2-(4,5-dihydro-1H-imidazol-2-ylamino)ethoxy]-2-hydroxybenzoyl}-amino)-2-[(4-methylbenzoyl)amino]propanoic acid] | > 1 µM
19 | COc1ccc(C(=O)N[C@@H](CNC(=O)c2ccc(OCCNC3=NCCN3)cc2O)C(=O)O)cc1 [Example 136, (2S)-3-({4-[2-(4,5-dihydro-1H-imidazol-2-ylamino)ethoxy]-2-hydroxybenzoyl}-amino)-2-[(4-methoxybenzoyl)amino]propanoic acid] | > 1 µM
20 | Cc1cc(C(=O)N[C@@H](CNC(=O)c2ccc(OCCNC3=NCCN3)cc2O)C(=O)O)c(C)o1 [Example 137, (2S)-3-({4-[2-(4,5-dihydro-1H-imidazol-2-ylamino)ethoxy]-2-hydroxybenzoyl}-amino)-2-[(2,5-dimethyl-3-furoyl)amino]propanoic acid] | > 1 µM
21 | O=C(NC[C@H](NC(=O)c1ccccc1Br)C(=O)O)c1ccc(OCCNC2=NCCN2)cc1O [Example 138] | 0.361 µM
22 | O=C(N[C@@H](CNC(=O)c1ccc(OCCNC2=NCCN2)cc1O)C(=O)O)c1ccc(Br)cc1 [Example 139, (2S)-2-[(4-bromobenzoyl)amino]-3-({4-[2-(4,5-dihydro-1H-imidazol-2-ylamino)ethoxy]-2-hydroxybenzoyl}amino)propanoic acid] | > 1 µM
23 | Cc1cccc(C(=O)N[C@@H](CNC(=O)c2ccc(OCCNC3=NCCN3)cc2O)C(=O)O)c1C [Example 140, (2S)-3-({4-[2-(4,5-dihydro-1H-imidazol-2-ylamino)ethoxy]-2-hydroxybenzoyl}-amino)-2-[(2,3-dimethylbenzoyl)amino]propanoic acid] | 0.0978 µM
